Results taken from patent US20250099475A1, “METHODS OF TREATING HYPERTENSION BY PERIODIC SUPPRESSION OF ALDOSTERONE SYNTHASE” (Mineralys Therapeutics, Inc., priority 2022, published 2025).

Test system: hypertensive subjects
Experiment: Example 4 dose-ranging study: automated office blood pressure (AOBP)
Type: in vivo, human
Settings: for Change in AOBP BPdias, Mean (sem) / Change in AOBP BPsys, Mean (sem): Week 8, Full Analysis Set
Procedure: A randomized, double-blinded, placebo-controlled, dose-ranging, multicenter study was conducted to evaluate the effect of orally administered Compound A HBr on blood pressure for the treatment of hypertension in male and female subjects ≥18 years of age.
The study consists of two parts. For enrollment into Part 1 of the study, a subject's value of plasma renin activity (PRA) must be ≤1 ng/mL/h based on morning measurement. If the value of PRA >1 ng/mL/h based on morning measurement, then subjects may be eligible to enter Part 2 of the study.
For Part 1, 163 enrolled subjects ≥18 years of age were randomized into 6 equal treatment groups (1:1:1:1:1:1) to 12.5 mg BID, 25 mg BID, 12.5 mg QD, 50 mg QD, 100 mg QD, or placebo. After a review of interim clinical data, the 2 lowest dose levels (12.5 mg QD and 12.5 mg BID) were stopped for future randomization due to a lack of consistent meaningful reduction of blood pressure, but the patients randomized to that point remained in the study through completion. Thus, after the review of interim clinical data, subjects were randomized into 4 equal treatment groups (1:1:1:1) to 25 mg BID, 50 mg QD, 100 mg QD, or placebo.
For Part 2, 36 enrolled subjects ≥18 years of age were randomized (5:1) to either 100 mg QD Compound A HBr or placebo such that the Compound A HBr treatment group consisted of approximately 30 subjects and the placebo treatment group will consist of approximately 6 subjects.
Subjects orally administered the assigned study drug (Compound A HBr or placebo) according to the assigned dosing regimen for 8 weeks beginning on Study Day 1. All subjects in Part 1 (regardless of dosing group) received BID dosing to preserve the integrity of the blind; active drug is administered as the morning dose for all QD dose groups. Subjects returned to the research facility or were seen by the clinical investigator or approved home health care professional at the end of Study Weeks 1, 2, 3, 4, 5, 6, 7, and 8 (±2 days) for protocol-defined efficacy and safety assessments and procedures, assessment of adverse events (AEs), and confirmation of compliance with study drug usage. Subjects also completed a telephone visit and blood pressure (BP) check at home approximately 3 days post last dose of study drug. Subjects attended up to 14 full clinic visits, including a pre-Screening visit, a Screening/start of Placebo Run-in visit, a second visit during Placebo Run-in, a clinic visit to initiate the ABPM procedure, a Randomization visit, 8 weekly visits during double-blind treatment, and an end-of-study visit scheduled 4 weeks after the last study treatment for final efficacy and safety assessments.
An automated oscillometric sphygmomanometer device was used to measure the subjects' systolic and diastolic blood pressure in office after approximately 5 minutes of rest in the seated position.
The primary endpoint is the change in office-measured (mean of last 2 of 5 unattended measurements using an automated oscillometric sphygmomanometer device after approximately 5 minutes of rest in the seated position) systolic blood pressure (SBP) from baseline to the end of Study Week 8.

[1] = pooled 50 mg QD, 100 mg QD, 12.5 mg BID and 25 mg BID cohorts (N=103)

CC(=O)N[C@H]1CC[C@H](NC(=O)CN2CCN(c3nncc(-c4ccc(C)cc4)n3)CC2)CC1 [Compound A HBr]
reduction in AOBP systolic BP, placebo-corrected, Full-analysis set (100 mg, Part-1 and Part-2 (interim) combined, N=58 active): −9.9 mmHg
Difference from placebo in blood pressure change (LS modeled mean) (Age 65-79, 12.5 mg BID): −1.5 (13)
Difference from placebo in blood pressure change (LS modeled mean) (Age 65-79, 12.5 mg QD): 1.1 (10)
Difference from placebo in blood pressure change (LS modeled mean) (Age 65-79, 25 mg BID): −2.4 (15)
Difference from placebo in blood pressure change (LS modeled mean) (Age 65-79, 50 mg QD): −8.8 (13)
Difference from placebo in blood pressure change (LS modeled mean) (Age 65-79, 100 mg QD): −1.6 (18)
Difference from placebo in blood pressure change (LS modeled mean) (Age <65, 12.5 mg BID): −5.4 (6)
Difference from placebo in blood pressure change (LS modeled mean) (Age <65, 12.5 mg QD): −0.3 (10)
Difference from placebo in blood pressure change (LS modeled mean) (Age <65, 25 mg BID): −8.5 (13)
Difference from placebo in blood pressure change (LS modeled mean) (Age <65, 50 mg QD): −10.2 (13)
Difference from placebo in blood pressure change (LS modeled mean) (Age <65, 100 mg QD): −15.7 (8)
Difference from placebo in blood pressure change (LS modeled mean) (Background hypertension therapy 2 medications, 12.5 mg BID): −1.2 (7)
Difference from placebo in blood pressure change (LS modeled mean) (Background hypertension therapy 2 medications, 12.5 mg QD): 1.8 (14)
Difference from placebo in blood pressure change (LS modeled mean) (Background hypertension therapy 2 medications, 25 mg BID): 1.4 (14)
Difference from placebo in blood pressure change (LS modeled mean) (Background hypertension therapy 2 medications, 50 mg QD): −3.7 (20)
Difference from placebo in blood pressure change (LS modeled mean) (Background hypertension therapy 2 medications, 100 mg QD): −7.5 (14)
Difference from placebo in blood pressure change (LS modeled mean) (Background hypertension therapy 3+ medications, 12.5 mg BID, * p < 0.05): −12.2* (15)
Difference from placebo in blood pressure change (LS modeled mean) (Background hypertension therapy 3+ medications, 12.5 mg QD): −6.0 (9)
Difference from placebo in blood pressure change (LS modeled mean) (Background hypertension therapy 3+ medications, 25 mg BID, * p < 0.05): −15.8* (16)
Difference from placebo in blood pressure change (LS modeled mean) (Background hypertension therapy 3+ medications, 50 mg QD, * p < 0.05): −19.1* (8)
Difference from placebo in blood pressure change (LS modeled mean) (Background hypertension therapy 3+ medications, 100 mg QD): −9.6 (16)
Difference from placebo in blood pressure change (LS modeled mean) (Baseline BPsys High tertile, 12.5 mg BID): −9.7
Difference from placebo in blood pressure change (LS modeled mean) (Baseline BPsys High tertile, 12.5 mg QD): −3.6
Difference from placebo in blood pressure change (LS modeled mean) (Baseline BPsys High tertile, 25 mg BID): −5.6
Difference from placebo in blood pressure change (LS modeled mean) (Baseline BPsys High tertile, 50 mg QD, * p < 0.05): −20.6*
Difference from placebo in blood pressure change (LS modeled mean) (Baseline BPsys High tertile, 100 mg QD): −9.7
Difference from placebo in blood pressure change (LS modeled mean) (Baseline BPsys Low tertile, 12.5 mg BID): 3.8
Difference from placebo in blood pressure change (LS modeled mean) (Baseline BPsys Low tertile, 12.5 mg QD): −10.7
Difference from placebo in blood pressure change (LS modeled mean) (Baseline BPsys Low tertile, 25 mg BID): −8.8
Difference from placebo in blood pressure change (LS modeled mean) (Baseline BPsys Low tertile, 50 mg QD): −8.3
Difference from placebo in blood pressure change (LS modeled mean) (Baseline BPsys Low tertile, 100 mg QD): −11.8
Difference from placebo in blood pressure change (LS modeled mean) (Baseline BPsys Middle tertile, 12.5 mg BID): −9.7
Difference from placebo in blood pressure change (LS modeled mean) (Baseline BPsys Middle tertile, 12.5 mg QD): 9.3
Difference from placebo in blood pressure change (LS modeled mean) (Baseline BPsys Middle tertile, 25 mg BID): −4.0
Difference from placebo in blood pressure change (LS modeled mean) (Baseline BPsys Middle tertile, 50 mg QD): −11.9
Difference from placebo in blood pressure change (LS modeled mean) (Baseline BPsys Middle tertile, 100 mg QD): −11.8
Difference from placebo in blood pressure change (LS modeled mean) (Gender Female, 12.5 mg BID): −3.79 (14)
Difference from placebo in blood pressure change (LS modeled mean) (Gender Female, 12.5 mg QD): −0.2 (12)
Difference from placebo in blood pressure change (LS modeled mean) (Gender Female, 25 mg BID): −5.18 (19)
Difference from placebo in blood pressure change (LS modeled mean) (Gender Female, 50 mg QD): −11.3 (15)
Difference from placebo in blood pressure change (LS modeled mean) (Gender Female, 100 mg QD): −5.1 (18)
Difference from placebo in blood pressure change (LS modeled mean) (Gender Male, 12.5 mg BID): −13.8 (8)
Difference from placebo in blood pressure change (LS modeled mean) (Gender Male, 12.5 mg QD): −2.3 (11)
Difference from placebo in blood pressure change (LS modeled mean) (Gender Male, 25 mg BID): −9.5 (11)
Difference from placebo in blood pressure change (LS modeled mean) (Gender Male, 50 mg QD): −8.3 (13)
Difference from placebo in blood pressure change (LS modeled mean) (Gender Male, 100 mg QD): −12.4 (12)
reduction in AOBP systolic BP, per-protocol, placebo-corrected (Part-1 100 mg cohort): −10.3 mmHg
Difference from placebo in blood pressure change (LS modeled mean) (Race Black, 12.5 mg BID): 5.57 (7)
Difference from placebo in blood pressure change (LS modeled mean) (Race Black, 12.5 mg QD): 6.75 (11)
Difference from placebo in blood pressure change (LS modeled mean) (Race Black, 25 mg BID): −10.1 (7)
Difference from placebo in blood pressure change (LS modeled mean) (Race Black, 50 mg QD): −6.9 (8)
Difference from placebo in blood pressure change (LS modeled mean) (Race Black, 100 mg QD): −7.0 (15)
Difference from placebo in blood pressure change (LS modeled mean) (Race Other, 12.5 mg BID): −14.7 (15)
Difference from placebo in blood pressure change (LS modeled mean) (Race Other, 12.5 mg QD): −7.5 (12)
Difference from placebo in blood pressure change (LS modeled mean) (Race Other, 25 mg BID): −7.2 (23)
Difference from placebo in blood pressure change (LS modeled mean) (Race Other, 50 mg QD): −12.1 (20)
Difference from placebo in blood pressure change (LS modeled mean) (Race Other, 100 mg QD): −9.2 (15)
Change in AOBP BPdias, Mean (sem) (12.5 mg BID): −6.1 (1.8) mmHg
Change in AOBP BPsys, Mean (sem) (12.5 mg BID): −11.3 (3.1) mmHg
Change in AOBP BPdias, Mean (sem) (12.5 mg QD): −6.1 (1.8) mmHg
Change in AOBP BPsys, Mean (sem) (12.5 mg QD): −5.7 (3.1) mmHg
Change in AOBP BPdias, Mean (sem) (25 mg BID): −3.83 (2.1) mmHg
Change in AOBP BPsys, Mean (sem) (25 mg BID): −11.0 (2.6) mmHg
Change in AOBP BPdias, Mean (sem) (50 mg QD): −8.1 (1.7) mmHg
Change in AOBP BPsys, Mean (sem) (50 mg QD): −13.9 (2.6) mmHg
Change in AOBP BPdias, Mean (sem) (100 mg QD): −4.76 (1.5) mmHg
Change in AOBP BPsys, Mean (sem) (100 mg QD): −12.2 (2.7) mmHg
mean reduction in AOBP measured systolic BP (doses of 50 mg and 100 mg QD): −11 to −13 mmHg
subjects with a change in BPsys >−15 mmHg [1]: 41%
subjects with a change in BPsys >−25 mmHg [1]: 25%
subjects who achieved >−23 mmHg fall in systolic blood pressure (week 8, pooled 50 mg QD, 100 mg QD, 12.5 mg BID, 25 mg BID cohorts): 25%
mean reduction in systolic blood pressure in the highest response quartile (week 8, pooled cohorts): −33.4+1.5 mmgHg
subjects who achieved a ≥15 mmHg fall in systolic blood pressure (week 8, pooled cohorts): 41%
